The text below walks through data of patent US12371454B2, “Cyclic peptide compound having Kras inhibitory action” (priority 2019, dated 2025).

This assay deals with T1, Kras and SOS1 (biotin-tagged human Kras loaded with GDP, His-tagged human SOS1) (Homo sapiens, UniProt P01116, G12D).
T1 construct: made in house; host or cells: E. coli (stated for Kras only)
Kind of assay: Protein-protein interaction inhibition between Kras and SOS1 (KrasGl2D-SOS PPI) using AlphaScreen. The format is binding. The note with it: AlphaScreen; biotin-tagged human Kras loaded with GDP, His-tagged human SOS1; read-out: KRAS G12D-SOS PPI IC50. The method in brief:
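Kras was produced in E. coli, purified, then loaded with GDP. It was paired via streptavidin acceptor beads with His-SOS1 held on nickel donor beads, and proximity signal at 520-620 nm was read after 680 nm illumination.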
In general terms: Bead proximity is the source of the signal in Alpha formats.

Positions of bridges follow the written chain, without caps; N, C: chain ends. Non-standard residues stand in square brackets, D forms with d. Residues, ends and D or L forms follow the SMILES beside them. *: point of attachment. hPhe(3-Cl-4-CF3) = N[C@@H](CCc1ccc(C(F)(F)F)c(Cl)c1)C(=O)O; hPhe(3-F,4-CF3) = N[C@@H](CCc1ccc(C(F)(F)F)c(F)c1)C(=O)O; NMePhe(4-CF3) = CN[C@@H](Cc1ccc(C(F)(F)F)cc1)C(=O)O; NMePhe(4-Cl) = CN[C@@H](Cc1ccc(Cl)cc1)C(=O)O; NMeNle(6-CHF2) = CN[C@@H](CCCCC(F)F)C(=O)O; NMeAla(cPent) = CN[C@@H](CC1CCCC1)C(=O)O; NMeGly(cPent) = CN[C@H](C(=O)O)C1CCCC1; Phe(3-I) = N[C@@H](Cc1cccc(I)c1)C(=O)O; NMeCha = CN[C@@H](CC1CCCCC1)C(=O)O; NMeAllylGly = C=CC[C@H](NC)C(=O)O; NMeChg = CN[C@H](C(=O)O)C1CCCCC1; dNMeF = CN[C@H](Cc1ccccc1)C(=O)O; hPhe = N[C@@H](CCc1ccccc1)C(=O)O; αMeF = C[C@](N)(Cc1ccccc1)C(=O)O; NMeD = CN[C@@H](CC(=O)O)C(=O)O; AllylGly = C=CC[C@H](N)C(=O)O; NMeL = CN[C@@H](CC(C)C)C(=O)O; Chg = N[C@H](C(=O)O)C1CCCCC1; dNMeAbu = CC[C@@H](NC)C(=O)O; hLeu = CC(C)CC[C@H](N)C(=O)O; NMeV = CN[C@H](C(=O)O)C(C)C; d(β3hA) = C[C@@H](N)CC(=O)O; dNMeS = CN[C@H](CO)C(=O)O; NMeA = CN[C@@H](C)C(=O)O; NMeAib = CNC(C)(C)C(=O)O; Nle = CCCC[C@H](N)C(=O)O; Piperidide = C1CCN(*)CC1; Pyrrolidide = C1CCN(*)C1; Ac5c = NC1(C(=O)O)CCCC1; Aze = O=C(O)[C@@H]1CCN1; Aib = CC(C)(N)C(=O)O; Isopentyl = CC(C)CC*; Sar = CNCC(=O)O

T1 sequence (P01116 1-188 isoform P01116-2 G12D): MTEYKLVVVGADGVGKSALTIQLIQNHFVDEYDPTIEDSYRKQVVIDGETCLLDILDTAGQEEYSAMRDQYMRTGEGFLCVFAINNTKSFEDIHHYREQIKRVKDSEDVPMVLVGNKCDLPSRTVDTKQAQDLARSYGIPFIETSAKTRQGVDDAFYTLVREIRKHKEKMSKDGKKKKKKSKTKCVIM

As a reminder, the IC50 is the concentration that gives 50% inhibition. `CCCC[C@@H]1NC(=O)[C@H](Cc2cccc(I)c2)NC(=O)CN(C)C(=O)[C@H](Cc2ccc(Cl)cc2)N(C)C(=O)CN(C)C(=O)CN(C)C(=O)[C@H]([C@@H](C)CC)NC(=O)[C@H](CC(C)C)N(C)C(=O)C[C@@H](C(=O)N2CCCC2)N(C)C(=O)[C@H](CCc2ccccc2)NC(=O)C(C)(C)N(C)C1=O` [Compound 1430] ([NMeL]I[Sar][Sar][NMePhe(4-Cl)][Sar][Phe(3-I)][Nle][NMeAib][hPhe][NMeD]-Pyrrolidide; lactam N-11): the IC50 is 400 nM. As to `C=CC[C@@H]1NC(=O)[C@H](Cc2cccc(I)c2)NC(=O)CN(C)C(=O)[C@H](Cc2ccc(Cl)cc2)N(C)C(=O)CN(C)C(=O)CN(C)C(=O)[C@H]([C@@H](C)CC)NC(=O)[C@H](CC(C)C)N(C)C(=O)C[C@@H](C(=O)N2CCCC2)N(C)C(=O)[C@H](CC(C)C)NC(=O)C(C)(C)N(C)C1=O` [Compound 1431] ([NMeL]I[Sar][Sar][NMePhe(4-Cl)][Sar][Phe(3-I)][AllylGly][NMeAib]L[NMeD]-Pyrrolidide; lactam N-11), the IC50 was 220 nM. The result for `CCCC[C@@H]1NC(=O)[C@H](Cc2cccc(I)c2)NC(=O)CN(C)C(=O)[C@H](CC2CCCC2)N(C)C(=O)[C@@H]2CCN2C(=O)[C@H](C)N(C)C(=O)[C@H]([C@@H](C)CC)NC(=O)[C@H](CC(C)C)N(C)C(=O)C[C@@H](C(=O)N2CCCCC2)N(C)C(=O)[C@H](CC(C)C)NC(=O)C(C)(C)N(C)C1=O` [Compound 1432] ([NMeL]I[NMeA][Aze][NMeAla(cPent)][Sar][Phe(3-I)][Nle][NMeAib]L[NMeD]-Piperidide; lactam N-11) reads 260 nM. In the case of `CCCC[C@@H]1NC(=O)[C@H](Cc2cccc(I)c2)NC(=O)CN(C)C(=O)[C@H](Cc2ccc(C(F)(F)F)cc2)N(C)C(=O)CN(C)C(=O)CN(C)C(=O)[C@H]([C@@H](C)CC)NC(=O)[C@H](CC(C)C)N(C)C(=O)C[C@@H](C(=O)N2CCCCC2)N(C)C(=O)[C@H](CCC(C)C)NC(=O)C(C)(C)N(C)C1=O` [Compound 1433] ([NMeL]I[Sar][Sar][NMePhe(4-CF3)][Sar][Phe(3-I)][Nle][NMeAib][hLeu][NMeD]-Piperidide; lactam N-11) it was 29 nM; in that of `CC[C@H](C)[C@@H]1NC(=O)[C@H](CC(C)C)N(C)C(=O)C[C@@H](C(=O)N2CCCCC2)N(C)C(=O)[C@H](C2CCCC2)N(C)C(=O)C2(CCCC2)NC(=O)[C@@H](Cc2ccccc2)N(C)C(=O)[C@H](CCc2ccc(C(F)(F)F)c(Cl)c2)NC(=O)CN(C)C(=O)[C@H](CC2CCCCC2)N(C)C(=O)[C@@H]2CCN2C(=O)[C@H](C)N(C)C1=O` [Compound 1434] ([NMeL]I[NMeA][Aze][NMeCha][Sar][hPhe(3-Cl-4-CF3)][dNMeF][Ac5c][NMeGly(cPent)][NMeD]-Piperidide; lactam N-11), 150 nM; in that of `CC[C@H](C)[C@@H]1NC(=O)[C@H](CC(C)C)N(C)C(=O)C[C@@H](C(=O)N2CCCCC2)N(C)C(=O)[C@H](C(C)C)N(C)C(=O)C2(CCCC2)NC(=O)[C@@H](COCCC(C)C)N(C)C(=O)[C@H](CCc2ccc(C(F)(F)F)c(Cl)c2)NC(=O)CN(C)C(=O)[C@H](CC2CCCCC2)N(C)C(=O)[C@@H]2CCN2C(=O)[C@H](C)N(C)C1=O` [Compound 1437] ([NMeL]I[NMeA][Aze][NMeCha][Sar][hPhe(3-Cl-4-CF3)][dNMeS](Isopentyl)[Ac5c][NMeV][NMeD]-Piperidide; lactam N-11), 81 nM.

On to `CC[C@@H]1C(=O)NC2(CCCC2)C(=O)N(C)[C@@H](C(C)C)C(=O)N(C)[C@H](C(=O)N2CCCCC2)CC(=O)N(C)[C@@H](CC(C)C)C(=O)N[C@@H]([C@@H](C)CC)C(=O)N(C)[C@@H](C)C(=O)N2CC[C@H]2C(=O)N(C)[C@@H](CC2CCCCC2)C(=O)N(C)CC(=O)N[C@@H](CCc2ccc(C(F)(F)F)c(Cl)c2)C(=O)N1C` [Compound 1438] ([NMeL]I[NMeA][Aze][NMeCha][Sar][hPhe(3-Cl-4-CF3)][dNMeAbu][Ac5c][NMeV][NMeD]-Piperidide; lactam N-11), for which the half-maximal inhibitory concentration (IC50) is 36 nM. In the case of `CC[C@H](C)[C@@H]1NC(=O)[C@H](CC(C)C)N(C)C(=O)C[C@@H](C(=O)N2CCCCC2)N(C)C(=O)[C@H](C2CCCC2)N(C)C(=O)C2(CCCC2)NC(=O)[C@@H](COCCC(C)C)N(C)C(=O)[C@H](CCc2ccc(C(F)(F)F)c(Cl)c2)NC(=O)CN(C)C(=O)[C@H](CC2CCCCC2)N(C)C(=O)CN(C)C(=O)CN(C)C1=O` [Compound 1440] ([NMeL]I[Sar][Sar][NMeCha][Sar][hPhe(3-Cl-4-CF3)][dNMeS](Isopentyl)[Ac5c][NMeGly(cPent)][NMeD]-Piperidide; lactam N-11) it was 16 nM; in that of `CC[C@@H]1C(=O)NC2(CCCC2)C(=O)N(C)[C@@H](C2CCCC2)C(=O)N(C)[C@H](C(=O)N2CCCCC2)CC(=O)N(C)[C@@H](CC(C)C)C(=O)N[C@@H]([C@@H](C)CC)C(=O)N(C)[C@@H](C)C(=O)N2CC[C@H]2C(=O)N(C)[C@@H](CC2CCCCC2)C(=O)N(C)CC(=O)N[C@@H](CCc2ccc(C(F)(F)F)c(Cl)c2)C(=O)N1C` [Compound 1441] ([NMeL]I[NMeA][Aze][NMeCha][Sar][hPhe(3-Cl-4-CF3)][dNMeAbu][Ac5c][NMeGly(cPent)][NMeD]-Piperidide; lactam N-11), 6.4 nM; in that of `CC[C@H](C)[C@@H]1NC(=O)[C@H](CC(C)C)N(C)C(=O)C[C@@H](C(=O)N2CCCCC2)N(C)C(=O)[C@H](C(C)C)N(C)C(=O)C2(CCCC2)NC(=O)[C@@H](Cc2ccccc2)N(C)C(=O)[C@H](CCc2ccc(C(F)(F)F)c(Cl)c2)NC(=O)CN(C)C(=O)[C@H](CC2CCCCC2)N(C)C(=O)[C@@H]2CCN2C(=O)[C@H](C)N(C)C1=O` [Compound 1442] ([NMeL]I[NMeA][Aze][NMeCha][Sar][hPhe(3-Cl-4-CF3)][dNMeF][Ac5c][NMeV][NMeD]-Piperidide; lactam N-11), 280 nM. The result for `CC[C@H](C)[C@@H]1NC(=O)[C@H](CC(C)C)N(C)C(=O)C[C@@H](C(=O)N2CCCCC2)N(C)C(=O)[C@H](C2CCCC2)N(C)C(=O)C2(CCCC2)NC(=O)[C@@H](COCCC(C)C)N(C)C(=O)[C@H](CCc2ccc(C(F)(F)F)c(Cl)c2)NC(=O)CN(C)C(=O)[C@H](CC2CCCCC2)N(C)C(=O)[C@@H]2CCN2C(=O)[C@H](C)N(C)C1=O` [Compound 1443] ([NMeL]I[NMeA][Aze][NMeCha][Sar][hPhe(3-Cl-4-CF3)][dNMeS](Isopentyl)[Ac5c][NMeGly(cPent)][NMeD]-Piperidide; lactam N-11) reads 23 nM; that for `CC[C@H](C)[C@@H]1NC(=O)[C@H](CC(C)C)N(C)C(=O)C[C@@H](C(=O)N2CCCCC2)N(C)C(=O)[C@H](C(C)C)N(C)C(=O)C2(CCCC2)NC(=O)[C@@H](CO)N(C)C(=O)[C@H](CCc2ccc(C(F)(F)F)c(Cl)c2)NC(=O)CN(C)C(=O)[C@H](CC2CCCCC2)N(C)C(=O)[C@@H]2CCN2C(=O)[C@H](C)N(C)C1=O` [Compound 1444] ([NMeL]I[NMeA][Aze][NMeCha][Sar][hPhe(3-Cl-4-CF3)][dNMeS][Ac5c][NMeV][NMeD]-Piperidide; lactam N-11), 8.8 nM.

Regarding `C=CC[C@H]1C(=O)NC2(CCCC2)C(=O)N(C)[C@@H](C(C)C)C(=O)N(C)[C@H](C(=O)N2CCCCC2)CC(=O)N(C)[C@@H](CC(C)C)C(=O)N[C@@H]([C@@H](C)CC)C(=O)N(C)[C@@H](C)C(=O)N2CC[C@H]2C(=O)N(C)[C@@H](CC2CCCCC2)C(=O)N(C)CC(=O)N[C@@H](CCc2ccc(C(F)(F)F)c(Cl)c2)C(=O)N1C` [Compound 1447] ([NMeL]I[NMeA][Aze][NMeCha][Sar][hPhe(3-Cl-4-CF3)][NMeAllylGly][Ac5c][NMeV][NMeD]-Piperidide; lactam N-11), the IC50 came to 100 nM.

On to `C=CC[C@H]1C(=O)NC2(CCCC2)C(=O)N(C)[C@@H](C2CCCCC2)C(=O)N(C)[C@H](C(=O)N2CCCCC2)CC(=O)N(C)[C@@H](CC(C)C)C(=O)N[C@@H]([C@@H](C)CC)C(=O)N(C)CC(=O)N(C)CC(=O)N(C)[C@@H](CC2CCCCC2)C(=O)N(C)CC(=O)N[C@@H](CCc2ccc(C(F)(F)F)c(Cl)c2)C(=O)N1C` [Compound 1449] ([NMeL]I[Sar][Sar][NMeCha][Sar][hPhe(3-Cl-4-CF3)][NMeAllylGly][Ac5c][NMeChg][NMeD]-Piperidide; lactam N-11), for which the IC50 was 14 nM. The result for `CC(C)C[C@H]1C(=O)N[C@@H](C2CCCCC2)C(=O)N(C)CC(=O)N(C)CC(=O)N(C)[C@@H](CCCCC(F)F)C(=O)N(C)CC(=O)N[C@@H](CCc2ccc(C(F)(F)F)c(F)c2)C(=O)N(C)[C@@H](CC(C)C)C(=O)N[C@@](C)(Cc2ccccc2)C(=O)N(C)[C@@H](CC(C)C)C(=O)N[C@H](C(=O)N2CCCC2)CC(=O)N1C` [Compound 1450] ([NMeL][Chg][Sar][Sar][NMeNle(6-CHF2)][Sar][hPhe(3-F,4-CF3)][NMeL][αMeF][NMeL]D-Pyrrolidide; lactam N-11) reads 220 nM; that for `CC(C)C[C@H]1C(=O)N[C@@H](C(C)C)C(=O)N(C)CC(=O)N(C)CC(=O)N(C)[C@@H](CC2CCCCC2)C(=O)N(C)CC(=O)N[C@@H](CCc2ccc(C(F)(F)F)c(Cl)c2)C(=O)N2CCC[C@H]2C(=O)NC2(CCCC2)C(=O)N(C)[C@@H](CC(C)C)C(=O)N[C@H](C)CC(=O)N1C` [Compound 1452] (cyclo([Ac5c][NMeL][d(β3hA)][NMeL]V[Sar][Sar][NMeCha][Sar][hPhe(3-Cl-4-CF3)]P)), 38 nM. As to `CC(C)C[C@H]1C(=O)N[C@@H](C2CCCCC2)C(=O)N(C)CC(=O)N(C)CC(=O)N(C)[C@@H](CCCCC(F)F)C(=O)N(C)CC(=O)N[C@@H](CCc2ccc(C(F)(F)F)c(F)c2)C(=O)N(C)[C@@H](CC(C)C)C(=O)NC(C)(C)C(=O)N(C)[C@@H](CC(C)C)C(=O)N[C@H](C(=O)N2CCCC2)CC(=O)N1C` [Compound 1453] ([NMeL][Chg][Sar][Sar][NMeNle(6-CHF2)][Sar][hPhe(3-F,4-CF3)][NMeL][Aib][NMeL]D-Pyrrolidide; lactam N-11), the IC50 was 110 nM.
